Assay results taken from US11149020B2, “MAP kinase modulators and uses thereof” (The Trustees of Columbia University in the City of New York, priority 2013, dated 2021).
Like-named read-outs stand apart in the source and are kept apart here.

Experiments:
CK-1δ = CK-1δ (Homo sapiens (Human), UniProt P48730); assay: Kinase assay, concentration dependent inhibition of CK-1δ
human p38α MAPK = human p38α MAPK (Homo sapiens (Human), UniProt Q16539); assay: Kinase assay, concentration dependent inhibition of p38α MAPK; format: biochemical; details: for Ki: kinetic analyses
Sequence of human p38α MAPK (Q16539 whole entry): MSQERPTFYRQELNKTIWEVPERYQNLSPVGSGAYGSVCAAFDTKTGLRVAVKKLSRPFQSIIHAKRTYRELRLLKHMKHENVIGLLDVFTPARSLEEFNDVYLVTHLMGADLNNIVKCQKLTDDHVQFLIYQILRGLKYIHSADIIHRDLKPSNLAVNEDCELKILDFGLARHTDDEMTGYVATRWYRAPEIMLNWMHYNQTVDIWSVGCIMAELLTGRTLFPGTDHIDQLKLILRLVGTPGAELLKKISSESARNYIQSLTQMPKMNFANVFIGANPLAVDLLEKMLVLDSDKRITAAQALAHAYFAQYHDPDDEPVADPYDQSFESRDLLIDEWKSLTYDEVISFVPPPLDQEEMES

APP/PS1 mice [1] = assay: LTP in APP/PS1 mice; format: in vivo, mouse; details: 2.5 mg/kg, daily, p.o., from 2 months until 3-4 months of age
APP/PS1 mice [2] = assay: RAWM in APP/PS1 mice; details: 2.5 mg/kg, daily, p.o., from 2 months of age
APP/PS1 mice [3] = assay: Fear conditioning (contextual and cued) in APP/PS1 mice; details: 2.5 mg/kg, daily, p.o., from 2 months of age
[4] = tested on: LPS-induced IL-1β in brain cortex; assay: In vivo LPS-induced brain cortex IL-1β; parameters: species or system mouse; details: oral administration, 20 mg/Kg, 6 hrs after LPS
[5] = tested on: murine microglial BV-2 cell line; assay: cells; format: cell-based; details: BV-2 cells, TLR2, TLR4, TLR7/8, TLR9 ligands

Sequence of CK-1δ (P48730 whole entry): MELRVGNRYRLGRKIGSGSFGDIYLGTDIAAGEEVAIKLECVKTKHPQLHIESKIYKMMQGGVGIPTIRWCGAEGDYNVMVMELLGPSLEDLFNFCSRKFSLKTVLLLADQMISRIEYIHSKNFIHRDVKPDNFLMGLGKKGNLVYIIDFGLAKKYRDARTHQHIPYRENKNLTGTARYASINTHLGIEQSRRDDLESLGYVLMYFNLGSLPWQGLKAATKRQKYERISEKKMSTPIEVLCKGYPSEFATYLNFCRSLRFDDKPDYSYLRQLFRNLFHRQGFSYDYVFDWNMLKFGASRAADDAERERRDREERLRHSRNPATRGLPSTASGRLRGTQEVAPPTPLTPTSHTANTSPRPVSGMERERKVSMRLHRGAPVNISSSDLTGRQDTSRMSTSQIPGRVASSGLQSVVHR

Row | Compound | IC50 (human p38α MAPK) | IC50 (CK-1δ; read-out: Ck1δ IC50) | also measured
1 | CN1CCN(c2cc(-c3ccncc3)c(-c3cccc4ccccc34)nn2)CC1 [11 (MW-122), 6-(4-methylpiperazin-1-yl)-3-(naphthalen-1-yl)-4-(pyridin-4-yl)pyridazine] | 185 nM | > 10000 nM | Ki (human p38α MAPK): 98 nM
2 | CNc1cc(-c2ccncc2)c(-c2ccc3ccccc3c2)nn1 [16 (MW-200), N-methyl-6-(naphthalen-2-yl)-5-(pyridin-4-yl)pyridazin-3-amine] | 175 nM | 4980 nM | Ki (human p38α MAPK): 100 nM
3 | CN(C)c1cc(-c2ccncc2)c(-c2cc(F)cc3cccnc23)nn1 [21 (MW-165), 6-(6-fluoroquinolin-8-yl)-N,N-dimethyl-5-(pyridin-4-yl)pyridazin-3-amine] | > 1600 nM | – | –
4 | CN(C)c1cnc(-c2cccc3ccccc23)c(-c2ccncc2)n1 [44 (MW-064), N,N-dimethyl-5-(naphthalen-1-yl)-6-(pyridin-4-yl)pyrazin-2-amine] | 456 nM | > 10000 nM | Ki (human p38α MAPK): 343 nM
5 | c1ccc2c(-c3nnc(C4CC4)cc3-c3ccncc3)cccc2c1 [7 (MW-077), 6-cyclopropyl-3-(naphthalen-1-yl)-4-(pyridin-4-yl)pyridazine] | 419 nM | > 10000 nM | LTP defect in APP/PS1 mice (APP/PS1 mice [1]): rescue defects in LTP; spatial/reference memory defect (RAWM) in APP/PS1 mice (APP/PS1 mice [2]): rescue defects in spatial memory; contextual fear memory defect in APP/PS1 mice (APP/PS1 mice [3]): rescue the defect in contextual fear learning; Ki (human p38α MAPK): 186 nM
6 | Fc1cnccc1-c1cc(C2CC2)nnc1-c1ccc2ccccc2c1 [10 (MW-167), 6-Cyclopropyl-4-(3-fluoropyridin-4-yl)-3-(naphthalen-2-yl)pyridazine] | 307 nM | > 10000 nM | Ki (human p38α MAPK): 86 nM
7 | CN1CCN(c2cc(-c3ccncc3F)c(-c3cccc4ccccc34)nn2)CC1 [14 (MW-109), 4-(3-fluoropyridin-4-yl)-6-(4-methylpiperazin-1-yl)-3-(naphthalen-1-yl)pyridazine] | 131 nM | > 10000 nM | –
8 | CN1CCN(c2cc(-c3ccncc3)c(-c3cccc4[nH]ccc34)nn2)CC1 [29 (MW-108), 4-(6-(4-methylpiperazin-1-yl)-4-(pyridin-4-yl)pyridazin-3-yl)-1H-indole] | 3070 nM | 6130 nM | –
9 | COc1ccc2ccccc2c1-c1nnc(N(C)C)cc1-c1ccncc1 [19 (MW-155), 6-(2-methoxynaphthalen-1-yl)-N,N-dimethyl-5-(pyridin-4-yl)pyridazin-3-amine] | > 1600 nM | – | –
10 | CCCN(C)c1cc(-c2ccncc2)c(-c2cccc3ccccc23)nn1 [24 (MW-010), N-methyl-6-(naphthalen-1-yl)-N-propyl-5-(pyridin-4-yl)pyridazin-3-amine] | 188 nM | – | IC50 (CK-1δ): > 10000 nM
11 | c1ccc2c(-c3nnc(N4CCCCC4)cc3-c3ccncc3)cccc2c1 [12 (MW-124), 3-(naphthalen-1-yl)-6-(piperidin-1-yl)-4-(pyridin-4-yl)pyridazine] | 191 nM | > 10000 nM | –
12 | c1ccc2c(-c3nnc(NC4CC4)cc3-c3ccncc3)cccc2c1 [13 (MW-107), N-cyclopropyl-6-(naphthalen-1-yl)-5-(pyridin-4-yl)pyridazin-3-amine] | 264 nM | > 10000 nM | Ki (human p38α MAPK): 91 nM
13 | CN(C)c1cc(-c2ccncc2)c(-c2ccc(F)c3ccccc23)nn1 [17 (MW-078), 6-(4-fluoronaphthalen-1-yl)-N,N-dimethyl-5-(pyridin-4-yl)pyridazin-3-amine] | 1780 nM | > 10000 nM | –
14 | CC(C)Nc1cc(-c2ccncc2)c(-c2ccc3ccccc3c2)nn1 [26 (MW-025), N-isopropyl-6-(naphthalen-2-yl)-5-(pyridin-4-yl)pyridazin-3-amine] | 130 nM | 2620 nM | –
15 | CC(C)Nc1cc(-c2ccncc2)c(-c2cccc3ccccc23)nn1 [25 (MW-031), N-isopropyl-6-(naphthalen-1-yl)-5-(pyridin-4-yl)pyridazin-3-amine] | 162 nM | > 10000 nM | –
16 | CN(C)c1cc(-c2ccncc2)c(-c2cccc3cnccc23)nn1 [20 (MW-082), 6-(isoquinolin-5-yl)-N,N-dimethyl-5-(pyridin-4-yl)pyridazin-3-amine] | > 3200 nM | > 10000 nM | –
17 | CNc1cc(-c2ccncc2)c(-c2cccc3ccccc23)nn1 [15 (MW-156), N-methyl-6-(naphthalen-1-yl)-5-(pyridin-4-yl)pyridazin-3-amine] | 289 nM | > 10000 nM | Ki (human p38α MAPK): 276 nM
18 | CN(C)c1cc(-c2ccncc2)c(-c2ccc3[nH]ccc3c2)nn1 [22 (MW-066), 6-(1H-indol-5-yl)-N,N-dimethyl-5-(pyridin-4-yl)pyridazin-3-amine] | 369 nM | 4280 nM | –
19 | CCN(CC)c1cc(-c2ccncc2)c(-c2cccc3ccccc23)nn1 [23 (MW-033), N,N-diethyl-6-(naphthalen-1-yl)-5-(pyridin-4-yl)pyridazin-3-amine] | 162 nM | > 10000 nM | –
20 | CN(C)c1cc(-c2ccncc2)c(-c2cccc3ccc(F)cc23)nn1 [18 (MW-085), 6-(7-fluoronaphthalen-1-yl)-N,N-dimethyl-5-(pyridin-4-yl)pyridazin-3-amine] | 1170 nM | – | –
21 | c1ccc2cc(-c3nnc(C4CC4)cc3-c3ccncc3)ccc2c1 [9 (MW-125), 6-Cyclopropyl-4-(pyridin-4-yl)-3-(naphthalen-2-yl)pyridazine] | 412 nM | > 10000 nM | LTP defect in APP/PS1 mice (APP/PS1 mice [1]): rescue defects in LTP; spatial/reference memory defect (RAWM) in APP/PS1 mice (APP/PS1 mice [2]): rescue defects in spatial memory; contextual fear memory defect in APP/PS1 mice (APP/PS1 mice [3]): rescue the defect in contextual fear learning; Ki (human p38α MAPK): 127 nM
22 | CN(C)c1cc(-c2ccncc2)c(-c2cccc3ccccc23)nn1 [MW-181 (1)] | – | – | LPS-induced IL-1β levels in brain cortex [4]: in vivo suppression of increased brain levels of IL-1β after oral administration; IL-1β production with diverse TLR ligands [5]: inhibition of increased cytokine production by glia in response to LPS (IC50=820±30 nM) and other TLR ligands

Further lines, with some results ahead:

Row | IC50 (human p38α MAPK) | Compound | IC50 (CK-1δ; read-out: Ck1δ IC50) | also measured
23 | 235 nM | CN1CCN(c2cc(-c3ccncc3F)c(-c3ccc4ccccc4c3)nn2)CC1 [37 (MW-149), 4-(3-fluoropyridin-4-yl)-6-(4-methylpiperazin-1-yl)-3-(naphthalen-2-yl)pyridazine] | 4620 nM | –
24 | 520 nM | CCN1CCN(c2cc(-c3ccncc3)c(-c3ccc4ccccc4c3)nn2)CC1 [62 (MW-026), 6-(4-ethylpiperazin-1-yl)-3-(naphthalen-2-yl)-4-(pyridin-4-yl)pyridazine] | 4990 nM | –
25 | 189 nM | c1ccc2cc(-c3nnc(NC4CC4)cc3-c3ccncc3)ccc2c1 [35 (MW-153), N-cyclopropyl-6-(naphthalen-2-yl)-5-(pyridin-4-yl)pyridazin-3-amine] | – | –
26 | 753 nM | c1cc(-c2nnc(N3CCNCC3)cc2-c2ccncc2)c2cc[nH]c2c1 [30 (MW-126), 4-(6-(piperazin-1-yl)-4-(pyridin-4-yl)pyridazin-3-yl)-1H-indole] | 2630 nM | –
27 | 224 nM | CN1CCC(c2cc(-c3ccncc3)c(-c3ccc4ccccc4c3)nn2)CC1 [36 (MW-164), 6-(1-methylpiperidin-4-yl)-3-(naphthalen-2-yl)-4-(pyridin-4-yl)pyridazine] | – | IC50 (CK-1δ): 11200 nM; Ki (human p38α MAPK): 101 nM
28 | 481 nM | c1ccc2cc(-c3nnc(N4CCOCC4)cc3-c3ccncc3)ccc2c1 [33 (MW-152), 4-(6-(naphthalen-2-yl)-5-(pyridin-4-yl)pyridazin-3-yl)morpholine] | – | –
29 | 669 nM | CN1CCN(c2cc(-c3ccncc3)c(-c3cccc4cc(F)ccc34)nn2)CC1 [54 (MW-197), 3-(6-fluoronaphthalen-1-yl)-6-(4-methylpiperazin-1-yl)-4-(pyridin-4-yl)pyridazine] | 136000 nM | –
30 | 735 nM | CN1CCN(c2cc(-c3ccncc3)c(-c3ccc4cccc(F)c4c3)nn2)CC1 [52 (MW-032), 3-(8-Fluoronaphthalen-2-yl)-6-(4-methylpiperazin-1-yl)-4-(pyridin-4-yl)pyridazine] | 17900 nM | –
31 | > 20000 nM | CN1CCN(c2cc(-c3ccncc3)c(-c3cc(F)cc4ccccc34)nn2)CC1 [53 (MW-059), 3-(3-fluoronaphthalen-1-yl)-6-(4-methylpiperazin-1-yl)-4-(pyridin-4-yl)pyridazine] | 119000 nM | –
32 | 526 nM | CN1CCN(c2cc(-c3ccncc3)c(-c3cccc4c(F)cccc34)nn2)CC1 [55 (MW-063), 3-(5-fluoronaphthalen-1-yl)-6-(4-methylpiperazin-1-yl)-4-(pyridin-4-yl)pyridazine] | 32500 nM | –
33 | 974 nM | CN1CCN(c2cc(-c3ccncc3)c(-c3ccc4ccc(F)cc4c3)nn2)CC1 [50 (MW-017), 3-(7-Fluoronaphthalen-2-yl)-6-(4-methylpiperazin-1-yl)-4-(pyridin-4-yl)pyridazine] | 16800 nM | –
